Assay [1] addresses T1, Isoform 4 of Dual 3',5'-cyclic-AMP and -GMP phosphodiesterase 11A (PDE11A1) 35-489] (Homo sapiens, UniProt Q9HCR9).
T1 sequence (Q9HCR9 whole entry): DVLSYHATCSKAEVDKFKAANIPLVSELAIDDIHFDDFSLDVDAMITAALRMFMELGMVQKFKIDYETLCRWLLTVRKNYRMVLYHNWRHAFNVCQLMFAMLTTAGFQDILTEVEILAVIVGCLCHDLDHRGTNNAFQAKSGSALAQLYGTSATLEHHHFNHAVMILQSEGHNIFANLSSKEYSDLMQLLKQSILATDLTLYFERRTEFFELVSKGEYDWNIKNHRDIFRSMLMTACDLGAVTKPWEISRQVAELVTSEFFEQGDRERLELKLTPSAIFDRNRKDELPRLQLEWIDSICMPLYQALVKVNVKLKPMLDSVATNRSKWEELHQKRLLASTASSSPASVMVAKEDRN
The assay can be described thus: Phosphodiesterase (PDE) Inhibition Assay.

In assay [2] the target is T2, cAMP and cAMP-inhibited cGMP 3',5'-cyclic phosphodiesterase 10A [432-779] (Homo sapiens, UniProt Q9Y233).
T2 construct: 432-779
The assay can be described thus: Phosphodiesterase (PDE) Inhibition Assay.

The target in assay [3] is High affinity cAMP-specific and IBMX-insensitive 3',5'-cyclic phosphodiesterase 8A (Homo sapiens, UniProt O60658). The assay can be described thus: Phosphodiesterase (PDE) Inhibition Assay.
Assay [4] addresses T3, cGMP-dependent 3',5'-cyclic phosphodiesterase [574-941] (Homo sapiens, UniProt O00408).
T3 construct: 574-941
The assay is described as follows: Phosphodiesterase (PDE) Inhibition Assay.

The target of assay [5] is T4, High affinity cGMP-specific 3',5'-cyclic phosphodiesterase 9A [226-593] (Homo sapiens, UniProt O76083).
T4 construct: 226-593

Assay [6] has as its target Dual specificity calcium/calmodulin-dependent 3',5'-cyclic nucleotide phosphodiesterase 1B (Homo sapiens, UniProt Q01064). The assay is described as follows: Phosphodiesterase (PDE) Inhibition Assay. Conditions: pH 7.5; 30 °C.
The target of assay [7] is T5, cGMP-inhibited 3',5'-cyclic phosphodiesterase 3B [650-1084] (Homo sapiens, UniProt Q13370).
T5 construct: 650-1084
The assay can be described thus: Phosphodiesterase (PDE) Inhibition Assay.

Assay [8] deals with T6, cGMP-specific 3',5'-cyclic phosphodiesterase [531-875] (Homo sapiens, UniProt O76074).
T6 construct: 531-875
The assay is described as follows: Phosphodiesterase (PDE) Inhibition Assay.

Assay [9] has as its target T7, cAMP-specific 3',5'-cyclic phosphodiesterase 7B [91-450] (Homo sapiens, UniProt Q9NP56).
T7 construct: 91-450
The assay is described as follows: Phosphodiesterase (PDE) Inhibition Assay.

In assay [10] the target is cAMP-specific 3',5'-cyclic phosphodiesterase 4D [372-376,381-715,S375G,I381V,S383G,G384S,V385H,K386M) (Homo sapiens, UniProt Q08499, S375G/I381V/S383G/G384S/V385H/K386M). The assay can be described thus: Phosphodiesterase (PDE) Inhibition Assay.

Where only a bound is given, the exact number is not on record here.

T3 sequence (O00408 574-941): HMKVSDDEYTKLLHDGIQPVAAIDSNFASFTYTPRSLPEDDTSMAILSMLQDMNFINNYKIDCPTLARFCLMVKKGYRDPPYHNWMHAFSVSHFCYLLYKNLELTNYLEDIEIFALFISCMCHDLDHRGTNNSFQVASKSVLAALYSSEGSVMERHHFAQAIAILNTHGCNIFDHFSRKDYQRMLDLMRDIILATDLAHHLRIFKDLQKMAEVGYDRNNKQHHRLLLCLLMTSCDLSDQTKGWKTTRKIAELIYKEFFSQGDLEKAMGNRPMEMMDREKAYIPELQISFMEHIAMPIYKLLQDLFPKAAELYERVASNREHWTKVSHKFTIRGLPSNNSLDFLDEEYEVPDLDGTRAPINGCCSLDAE
T4 sequence (O76083 226-593): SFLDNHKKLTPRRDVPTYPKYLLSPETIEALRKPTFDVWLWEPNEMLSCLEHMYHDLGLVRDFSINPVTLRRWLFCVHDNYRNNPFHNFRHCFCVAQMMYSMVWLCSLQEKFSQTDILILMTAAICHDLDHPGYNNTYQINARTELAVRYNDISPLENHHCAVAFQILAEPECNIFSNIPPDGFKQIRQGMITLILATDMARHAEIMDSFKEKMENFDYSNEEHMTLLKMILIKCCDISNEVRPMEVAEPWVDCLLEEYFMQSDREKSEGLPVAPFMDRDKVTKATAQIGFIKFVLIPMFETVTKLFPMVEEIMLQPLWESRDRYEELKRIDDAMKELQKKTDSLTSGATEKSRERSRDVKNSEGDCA
T5 sequence (Q13370 650-1084): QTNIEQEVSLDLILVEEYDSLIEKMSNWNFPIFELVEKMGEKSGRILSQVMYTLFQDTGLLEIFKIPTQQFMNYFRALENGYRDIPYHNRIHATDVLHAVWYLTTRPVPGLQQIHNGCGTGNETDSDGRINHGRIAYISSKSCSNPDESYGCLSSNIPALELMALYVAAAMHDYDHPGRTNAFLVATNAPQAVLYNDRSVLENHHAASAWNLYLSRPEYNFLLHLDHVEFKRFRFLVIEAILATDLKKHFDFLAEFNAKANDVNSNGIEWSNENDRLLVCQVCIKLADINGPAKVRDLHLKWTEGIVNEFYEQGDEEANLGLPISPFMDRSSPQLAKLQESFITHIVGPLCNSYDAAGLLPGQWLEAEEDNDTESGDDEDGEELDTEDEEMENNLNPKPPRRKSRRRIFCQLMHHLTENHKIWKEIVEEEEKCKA
T2 sequence (Q9Y233 708-1055): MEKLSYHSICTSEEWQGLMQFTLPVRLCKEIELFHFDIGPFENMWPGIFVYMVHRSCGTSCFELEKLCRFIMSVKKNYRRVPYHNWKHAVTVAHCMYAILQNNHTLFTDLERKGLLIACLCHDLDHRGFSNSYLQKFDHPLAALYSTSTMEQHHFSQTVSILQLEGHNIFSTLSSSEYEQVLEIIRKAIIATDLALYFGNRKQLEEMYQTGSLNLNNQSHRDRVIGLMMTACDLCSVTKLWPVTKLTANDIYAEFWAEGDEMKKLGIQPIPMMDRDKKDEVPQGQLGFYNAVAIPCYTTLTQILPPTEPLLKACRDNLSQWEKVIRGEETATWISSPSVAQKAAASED
Sequence of Dual specificity calcium/calmodulin-dependent 3',5'-cyclic nucleotide phosphodiesterase 1B (Q01064 whole entry): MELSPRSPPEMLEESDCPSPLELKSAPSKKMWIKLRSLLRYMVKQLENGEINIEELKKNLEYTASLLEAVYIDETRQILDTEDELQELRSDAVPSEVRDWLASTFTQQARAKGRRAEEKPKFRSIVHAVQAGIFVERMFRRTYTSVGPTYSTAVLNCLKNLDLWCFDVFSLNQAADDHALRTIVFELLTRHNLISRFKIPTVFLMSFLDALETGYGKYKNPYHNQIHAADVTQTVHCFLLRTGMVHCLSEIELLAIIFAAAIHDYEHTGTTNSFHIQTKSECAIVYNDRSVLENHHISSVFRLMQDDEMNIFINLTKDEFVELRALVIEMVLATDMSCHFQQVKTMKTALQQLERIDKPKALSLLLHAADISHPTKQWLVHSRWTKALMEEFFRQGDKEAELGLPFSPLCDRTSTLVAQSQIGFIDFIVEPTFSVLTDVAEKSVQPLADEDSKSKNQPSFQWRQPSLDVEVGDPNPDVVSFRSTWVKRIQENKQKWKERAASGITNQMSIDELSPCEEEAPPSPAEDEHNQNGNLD
T7 sequence (Q9NP56 91-450): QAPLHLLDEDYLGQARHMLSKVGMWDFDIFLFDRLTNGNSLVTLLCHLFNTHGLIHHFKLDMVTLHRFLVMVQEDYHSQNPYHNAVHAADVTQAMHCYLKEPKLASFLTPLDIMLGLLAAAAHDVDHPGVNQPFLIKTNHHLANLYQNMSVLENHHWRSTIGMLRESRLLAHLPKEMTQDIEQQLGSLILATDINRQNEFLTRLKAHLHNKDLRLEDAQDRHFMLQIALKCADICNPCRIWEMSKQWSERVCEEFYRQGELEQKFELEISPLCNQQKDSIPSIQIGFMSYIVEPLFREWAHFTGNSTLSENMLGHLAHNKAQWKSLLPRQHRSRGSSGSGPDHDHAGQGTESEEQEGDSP
Sequence of High affinity cAMP-specific and IBMX-insensitive 3',5'-cyclic phosphodiesterase 8A (O60658 whole entry): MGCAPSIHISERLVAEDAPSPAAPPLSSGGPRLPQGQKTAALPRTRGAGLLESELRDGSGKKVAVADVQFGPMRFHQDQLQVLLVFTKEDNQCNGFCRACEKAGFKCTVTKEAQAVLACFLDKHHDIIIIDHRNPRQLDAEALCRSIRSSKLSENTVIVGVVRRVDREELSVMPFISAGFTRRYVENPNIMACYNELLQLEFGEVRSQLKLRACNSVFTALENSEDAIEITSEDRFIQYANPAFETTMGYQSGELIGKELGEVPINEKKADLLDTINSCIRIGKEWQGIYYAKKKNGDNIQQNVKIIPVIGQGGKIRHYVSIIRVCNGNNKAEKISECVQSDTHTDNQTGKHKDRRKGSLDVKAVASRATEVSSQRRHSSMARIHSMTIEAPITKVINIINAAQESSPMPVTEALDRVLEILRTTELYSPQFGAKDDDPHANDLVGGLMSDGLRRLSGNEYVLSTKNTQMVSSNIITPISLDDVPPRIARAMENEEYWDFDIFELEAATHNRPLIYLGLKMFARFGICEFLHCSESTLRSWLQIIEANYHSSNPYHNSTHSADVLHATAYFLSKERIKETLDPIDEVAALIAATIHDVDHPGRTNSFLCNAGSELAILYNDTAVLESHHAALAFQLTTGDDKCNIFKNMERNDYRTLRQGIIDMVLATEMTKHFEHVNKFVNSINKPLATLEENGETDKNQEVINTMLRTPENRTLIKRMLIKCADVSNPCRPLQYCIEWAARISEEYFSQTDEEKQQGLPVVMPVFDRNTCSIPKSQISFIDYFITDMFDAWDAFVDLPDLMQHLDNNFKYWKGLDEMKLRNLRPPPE

As a reminder, the IC50 is the concentration at which inhibition is half-maximal. In the case of `CCCc1nc(C)c2c(=O)[nH]c(-c3cc(S(=O)(=O)N4CCN(CC)CC4)ccc3OCC)nn12`, the IC50 in [1] came out at 0.24 µM; in [2], 0.88 µM; in assay [3] it was 57 µM; in assay [4] it was 3.1 µM.
In the case of `COc1ccc(C2(C#N)CCC(C(=O)O)CC2)cc1OC1CCCC1` (stereo not drawn) [Ariflo], the IC50 in assay [5] was more than 200 µM; in assay [1], 21 µM; in assay [6], 87 µM; in [7], 87 µM; in assay [2], 73 µM; in assay [8], 53 µM. Besides, the IC50 in assay [3] stood at 7 µM; in [4] (pH 7.5, 30 °C) it was 160 µM.
With `COc1cc(-c2ccc(=O)[nH]n2)ccc1OC(F)F` [6-[4-(difluoromethoxy)-3-methoxyphenyl]-2,3-dihydropyridazin-3-one], the IC50 is more than 200 µM in assay [5]; 140 µM in assay [1]; more than 200 µM in assay [6]; 1.5 µM in assay [7]; 14 µM in [2]; 81 µM in assay [8]. Also, the 50% inhibitory concentration (IC50) was 160 µM in assay [3] and more than 200 µM in assay [4] (pH 7.5, 30 °C).
For `CN1CC(=O)N2[C@H](c3ccc4c(c3)OCO4)c3[nH]c4ccccc4c3C[C@@H]2C1=O`, the IC50 in assay [5] is 150 µM; in [9] it was 74 µM; in [6], 50 µM; in assay [7] it was 280 µM; in assay [2], 19 µM; in assay [3], more than 200 µM. In assay [4], this compound returned an IC50 of 130 µM.
For the compound `COc1ccc(C(C)=NOC(N)=O)cc1OC1CCCC1` [(E)-{1-[3-(cyclopentyloxy)-4-methoxyphenyl]ethylidene}amino carbamate], the IC50 in [5] is more than 200 µM; in assay [9], 0.99 µM; in assay [1] it was 57 µM; in [6], 190 µM; in assay [7] it was 9.4 µM; in assay [2], 27 µM. The IC50 came to 1 µM in [10]; 53 µM in assay [8]; 120 µM in assay [3]; 89 µM in assay [4] (pH 7.5, 30 °C).
Consider `COc1ccc([C@@H]2CNC(=O)C2)cc1OC1CCCC1` (racemic) [Adeo], for which the IC50 in [5], in assay [9], in assay [1], in [6], in [7] and in assay [3] was more than 200 µM throughout. Further, the IC50 in assay [4] (pH 7.5, 30 °C) was more than 200 µM.
For the compound `COc1ccc(C(=O)Nc2c(Cl)cncc2Cl)cc1OC1CCCC1` [3-(cyclopentyloxy)-N-(3,5-dichloropyridin-4-yl)-4-methoxybenzamide], the IC50 in assay [5] was more than 200 µM; in [1], 1.6 µM; in assay [6], 68 µM; in assay [7] it was 11 µM; in assay [8], 3.5 µM; in [3] it was more than 200 µM. This compound also returned an IC50 in assay [4] of 54 µM.
For `O=C(Nc1c(Cl)cncc1Cl)c1ccc(OC(F)F)c(OCC2CC2)c1` [DAXAS], the IC50 was more than 200 µM in assay [5]; more than 200 µM in assay [9]; 25 µM in [1]; more than 200 µM in assay [6]; more than 200 µM in assay [7]; more than 200 µM in [2]. The IC50 in assay [8] was 17 µM; in [3] it was more than 200 µM; in assay [4], more than 200 µM.
On to `CCCOc1cc(C2(C)CNC(=O)O2)ccc1OC` (racemic) [5-(4-methoxy-3-propoxyphenyl)-5-methyl-1,3-oxazolidin-2-one], for which the IC50 was more than 200 µM in assay [5]; more than 200 µM in [1]; more than 200 µM in [6]; more than 200 µM in assay [7]; 63 µM in assay [2]; more than 200 µM in assay [8]. Also, the IC50 in assay [3] is more than 200 µM; in [4] (pH 7.5, 30 °C), more than 200 µM.

Source of the values: BindingDB's records for doi:10.1016/j.str.2004.10.004 (Plexxikon, 2004).
